The values that follow come from patent publication US9884863B2, “STAT3 inhibitor” (Board of Regents, The University of Texas System, priority 2013, dated 2018).

Broadly, the IC50 is the midpoint of a concentration-inhibition curve.

Where two headings read alike, the source gives them in different places.

The test system of one assay is MCF-7. Kind of assay: MTS cell proliferation assay, MCF-7. The assay is classed as cell-based, human. Summed up:
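MCF-7 human breast cancer cells were exposed to test compounds at a range of concentrations, then proliferation was measured with the MTS reagent from Promega's CellTiter 96 AQueous Non-Radioactive Cell Proliferation Assay kit. After 1 hr at 37° C., OD at 550 nm was read on a 96-well iMark Microplate Absorbance Reader, with quadruplicate wells per concentration.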
A general note: Tetrazolium assays rely on reduction of a dye to a coloured formazan, in cell work by metabolically active cells.

The test system of another assay is MDA-MB-361. The experiment in a line: MTS cell proliferation assay, MDA-MB-361. The assay is classed as cell-based. The settings on record: Homo sapiens, ER-positive breast cancer, 72 hrs, >10 = no effect, read-out: IC50 MDA-MB-361 (Table 1). As to the method: (§1) Cancer cells (breast cancer cell lines MCF-7, MDA-MB-361, SKBR3 and MDA-MB-231, pancreatic cancer cell lines AsPC-1. BxPC3 and Panc-1) were seeded in 96-well plates at a density of 1000-2000 cells/well and treated with DMSO, 0.01, 0.1, 1, 5, 10, and […] of STAT3 individual inhibitors for 72 hrs. Proliferation was measured by treating cells with the 3-(4,5-dimethylthiazol-2-yl)-5-(3-carboxymethoxyphenyl)-2-(4-sulfophenyl)-2H-tetrazolium) (MTS) in a CellTiter 96t AQueous Non-Radioactive Cell Proliferation Assay kit from Promega, Madison, Wis., USA). Absorbance of all wells was determined by measuring OD at 550 nm after 1 hr incubation at 37° C. on a 96-well iMark™ Microplate Absorbance Reader (BioRad, Hercules, Calif.). Each individual compound was tested in quadruplicate wells for each concentration, and the results were reported as mean absorption±s.e.

In a further assay the test system is MDA-MB-231. Kind of assay: MTS cell proliferation assay, MDA-MB-231. The assay is classed as cell-based, human. The settings on record: Homo sapiens, read-out: IC50 MDA-MB-231 (Table 1). Summed up:
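Cells are exposed to DMSO or STAT3 inhibitors at 0.01-100 μM for 72 h, or at 1, 5 and 10 μM. Proliferation is read by MTS absorbance at 550 or 560 nm after 1 h at 37 °C. Each concentration is run in quadruplicate wells.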

A further assay has as its system SKBR3. The experiment in a line: MTS cell proliferation assay, SKBR3. The class given is cell-based. The settings on record: Homo sapiens, SK-BR-3; ER-negative breast cancer, 72 hrs; >10 = no effect; read-out: IC50 SKBR3 (Table 1). The protocol: as §1
A further assay concerns AsPC1. The experiment in a line: MTS cell proliferation assay, AsPC1. The assay is classed as cell-based, human. The settings on record: Homo sapiens, read-out: IC50 AsPC1 (Table 1). The protocol:
as §1
(§2) In Vitro Determination of Effects of Synthesized Compounds on Cancer Cell Proliferation. Cancer cells (breast cancer cell lines MCF-7 and MDA-MB-231, pancreatic cancer cell lines AsPC-1 and Panc-1) were seeded in 96-well plates at a density of 2×10^3 cells/well and treated with DMSO, 0.01, 0.1, 1, 5, 10, and 100 μM of individual STAT3 inhibitors for 72 h. Proliferation was measured by treating cells with the 3-(4,5-dimethylthiazol-2-yl)-5-(3-carboxymethoxyphenyl)-2-(4-sulfophenyl)-2H-tetrazolium) (MTS) in a CellTiter 96t Aqueous Non-Radioactive Cell Proliferation Assay kit (Promega, Madison, Wis., USA). Absorbance of all wells was determined by measuring OD at 550 nm after 1 h incubation at 37° C. on a 96-well iMark™ Microplate Absorbance Reader (BioRad, Hercules, Calif.). Each individual compound was tested in quadruplicate wells for each concentration.

A further assay deals with BxPc-3H. The experiment in a line: MTS cell proliferation assay, BxPc-3H. The assay is classed as cell-based. Particulars: Homo sapiens; pancreatic cancer, 72 hrs; >10 = no effect; read-out: IC50 BxPc-3H (Table 1). As to the method:
as §1

The next assay deals with Panc-1. The experiment in a line: MTS cell proliferation assay, Panc-1. The class given is cell-based, human. The settings on record: Homo sapiens, read-out: IC50 Panc-1 (Table 1). The protocol: as §1, §2
[1] abbreviates: Homo sapiens, MCF7, 72 h; read-out: IC50 MCF-7 (Table 1).
[2] abbreviates: MDA-MB-231, ER-negative breast cancer, 72 hrs, >10 = no effect.
The mark [3] stands for this setting: ASPC1, pancreatic cancer, 72 hrs, >10 = no effect.
The mark [4] stands for this setting: PANC-1, pancreatic cancer, 72 hrs, >10 = no effect.
Where [5] appears, read: Homo sapiens, MCF7, 72 h, read-out: IC50 MCF-7 (Table 1).
The mark [6] stands for this setting: MCF-7, 48 hr, μM concentrations.

As to `Nc1ccc(NC(=O)c2cc(Cl)ccc2O)c(Cl)c1` [HJC-1-29, N-(4-Amino-2-chloro-phenyl)-5-chloro-2-hydroxy-benzamide], the IC50 is > 10 µM in the assay on MCF-7 (setting [1]); 14.9 µM in the assay with MDA-MB-361; > 10 µM in the assay with MDA-MB-231 (setting [2]); 16.1 µM in the assay on SKBR3; > 10 µM in the assay with AsPC1 (setting [3]); > 10 µM in the assay with BxPc-3H. Moreover, the half-maximal inhibitory concentration (IC50) in the assay on Panc-1 (setting [4]) was > 10 µM.
With `O=C(Nc1ccc2c(c1)S(=O)(=O)C=C2)c1c2ccccc2nc2ccccc12` [HJC-1-41, Acridine-9-carboxylic acid (1,1-dioxo-1H-1λ^6-benzo[b]thiophen-6-yl)amide], the IC50 is > 10 µM with MCF-7 (setting [5]); 170 µM in the assay with MDA-MB-361; > 10 µM in the assay with MDA-MB-231 (MDA-MB-231, 72 h); > 10 µM in the assay with SKBR3; > 10 µM with AsPC1 (ASPC1, 72 h); > 10 µM with BxPc-3H. Also, the IC50 in the assay on Panc-1 (PANC-1, 72 h) is > 10 µM.
Consider `O=C(Nc1ccc([N+](=O)[O-])cc1Cl)c1cc(Cl)ccc1OCCN1CCOCC1` [HJC-1-14, 5-Chloro-N-(2-chloro-4-nitro-phenyl)-2-(2-morpholin-4-yl-ethoxy)benzamide], for which the IC50 in the assay on MCF-7 (setting [5]) was 9.87 µM; in the assay on MDA-MB-361, 12.6 µM; in the assay on MDA-MB-231 (MDA-MB-231, 72 h) it was 17.9 µM; with SKBR3, 5.1 µM; in the assay with AsPC1 (ASPC1, 72 h), 73.2 µM; in the assay with BxPc-3H, > 10 µM. Further, the IC50 in the assay on Panc-1 (PANC-1, 72 h) was > 10 µM.
As for `C[C@H](NC(=O)c1cc(-c2ccccc2)nc2ccccc12)c1ccccc1` [HJC-1-28, 2-Phenyl-quinoline-4-carboxylic acid (1-phenyl-ethyl)amide], the IC50 in the assay on MCF-7 (setting [1]) is 2.24 µM; with MDA-MB-361 it was 132 µM; with MDA-MB-231 (setting [2]), 86 µM; in the assay with SKBR3, 45.9 µM; in the assay with AsPC1 (setting [3]), > 10 µM; in the assay with BxPc-3H, 16.4 µM. Besides, the IC50 with Panc-1 (setting [4]) was 15.4 µM.
For the molecule `O=C(Nc1ccc([N+](=O)[O-])cc1Cl)c1cc(Cl)ccc1OC1CCNCC1` [HJC-1-25, 5-Chloro-N-(2-chloro-4-nitro-phenyl)-2-(piperidin-4-yloxy)benzamide], the IC50 with MCF-7 (setting [1]) worked out at 0.25 µM; in the assay with MDA-MB-361, 0.18 µM; in the assay with MDA-MB-231 (setting [2]) it was 0.29 µM; in the assay on SKBR3 it was 0.28 µM; in the assay on AsPC1 (setting [3]), 2.76 µM; in the assay on BxPc-3H it was 0.27 µM. Also, the IC50 in the assay on Panc-1 (setting [4]) is 0.54 µM. In addition, in the assay on MCF-7 (setting [6]), the “inhibition on breast cancer cell proliferation (FIG. 1)” value (“inhibition” below) was “significant inhibition”.
With `O=C(Nc1ccc2c(c1)S(=O)(=O)C=C2)c1cc(-c2ccccc2)nc(-c2ccccc2)c1` [HJC-1-36, N-(1,1-Dioxo-1H-1λ^6-benzo[b]thiophen-6-yl)-2,6-diphenyl-isonicotinamide], the IC50 with MCF-7 (setting [1]) came out at 0.65 µM; in the assay on MDA-MB-361 it was 0.23 µM; in the assay with MDA-MB-231 (setting [2]), 0.45 µM; in the assay with SKBR3 it was 0.2 µM; with AsPC1 (setting [3]), 0.12 µM; in the assay on BxPc-3H, 0.27 µM. For the same molecule, the IC50 with Panc-1 (setting [4]) was determined as 0.31 µM. For the same molecule, in the assay on MCF-7 (setting [6]), the “inhibition” value is “significant inhibition”.
In the case of `C[C@H](NC(=O)c1cc(Cl)ccc1O)c1ccccc1` [HJC-1-30, 5-Chloro-2-hydroxy-N-(1-phenyl-ethyl)benzamide], the IC50 is 0.9 µM in the assay with MCF-7 (setting [1]); 6.39 µM in the assay on MDA-MB-361; 8.88 µM in the assay with MDA-MB-231 (setting [2]); 6.51 µM in the assay on SKBR3; 7.54 µM with AsPC1 (setting [3]); 7.26 µM with BxPc-3H. In addition, in the assay with Panc-1 (setting [4]), the IC50 worked out at 8.44 µM. In the assay on MCF-7 (setting [6]), the “inhibition” value is listed as “significant inhibition”.
In the case of `O=C(Nc1ccc([N+](=O)[O-])cc1Cl)c1cc(-c2ccccc2)nc2ccccc12` [HJC-1-17, 2-Phenyl-quinoline-4-carboxylic acid (2-chloro-4-nitro-phenyl)amide], the IC50 was 15.9 µM in the assay with MCF-7 (setting [5]); 17.4 µM in the assay on MDA-MB-361; > 10 µM with MDA-MB-231 (MDA-MB-231, 72 h); > 10 µM with SKBR3; > 10 µM in the assay on AsPC1 (ASPC1, 72 h); > 10 µM in the assay on BxPc-3H. In addition, the concentration for half-maximal inhibition (IC50) with Panc-1 (PANC-1, 72 h) was > 10 µM.
Turning to `CC(=O)Nc1ccc(NC(=O)c2cc(Cl)ccc2O)c(Cl)c1` [HJC-1-40, N-(4-Acetylamino-2-chlorophenyl)-5-chloro-2-hydroxybenzamide], the IC50 in the assay with MCF-7 (setting [1]) was > 10 µM; with MDA-MB-361 it was 22.8 µM; with MDA-MB-231 (setting [2]), 66.3 µM; with SKBR3 it was 11.2 µM; in the assay on AsPC1 (setting [3]), 37.6 µM; in the assay with BxPc-3H, > 10 µM. Moreover, the IC50 with Panc-1 (setting [4]) is > 10 µM.
For the molecule `CS(=O)(=O)Nc1ccc(NC(=O)c2cc(Cl)ccc2O)c(Cl)c1` [HJC-1-31, 5-Chloro-N-(2-chloro-4-methanesulfonylamino-phenyl)-2-hydroxybenzamide], the 50% inhibitory concentration (IC50) in the assay with MCF-7 (setting [1]) is > 10 µM; in the assay with MDA-MB-361, 43 µM; with MDA-MB-231 (setting [2]), > 10 µM; in the assay with SKBR3 it was > 10 µM; in the assay on AsPC1 (setting [3]) it was > 10 µM; with BxPc-3H, > 10 µM. Besides, the IC50 in the assay with Panc-1 (setting [4]) came out at 0.84 µM.
For `CC(=O)Nc1ccc(NC(=O)c2cc(Cl)ccc2OC(C)=O)c(Cl)c1` [HJC-1-37, Acetic acid 2-(4-acetylamino-2-chloro-phenylcarbamoyl)-4-chlorophenyl ester], the half-inhibitory concentration (IC50) with MCF-7 (setting [1]) is 11.7 µM; in the assay with MDA-MB-361 it was 9.23 µM; in the assay on MDA-MB-231 (setting [2]) it was > 10 µM; in the assay on SKBR3, 9.14 µM; in the assay with AsPC1 (setting [3]) it was 11.6 µM; with BxPc-3H, 13.2 µM. The IC50 in the assay on Panc-1 (setting [4]) was found to be 27.9 µM.
For the molecule `O=C(Nc1nnc(-c2ccco2)o1)c1cc(Cl)ccc1O` [HJC-1-51, 5-Chloro-N-(5-furan-2-yl-[1,3,4]oxadiazol-2-yl)-2-hydroxybenzamide], the IC50 in the assay on MCF-7 (setting [1]) is > 10 µM; in the assay with MDA-MB-361, > 10 µM; with MDA-MB-231 (setting [2]) it was > 10 µM; in the assay with SKBR3, 42.4 µM; in the assay with AsPC1 (setting [3]), > 10 µM; in the assay with BxPc-3H it was 200 µM. In addition, the IC50 in the assay with Panc-1 (setting [4]) was > 10 µM.
Regarding `O=C(Nc1ccc2c(c1)S(=O)(=O)C=C2)c1cc(Cl)ccc1O` [HJC-1-49, 5-Chloro-N-(1,1-dioxo-1H-1λ^6-benzo[b]thiophen-6-yl)-2-hydroxybenzamide], the IC50 was 0.91 µM with MCF-7 (setting [1]); 2.37 µM with MDA-MB-361; 1.64 µM in the assay on MDA-MB-231 (setting [2]); 0.72 µM in the assay on SKBR3; 1.92 µM in the assay on AsPC1 (setting [3]); 1.16 µM in the assay on BxPc-3H. Moreover, the IC50 in the assay on Panc-1 (setting [4]) came out at 2.34 µM. Further, the “inhibition” value in the assay on MCF-7 (setting [6]) is “significant inhibition”.
Take `O=C(Nc1ccc2c(c1)S(=O)(=O)C=C2)c1cc(-c2ccccc2)nc2ccccc12` [HJC-1-23, 2-Phenyl-quinoline-4-carboxylic acid (1,1-dioxo-1H-1λ^6-benzo[b]thiophen-6-yl)-amide]: the IC50 in the assay on MCF-7 (setting [5]) turned out to be 0.1 µM; in the assay with MDA-MB-361, 0.24 µM; in the assay on MDA-MB-231 (MDA-MB-231, 72 h), 0.29 µM; in the assay with SKBR3, 0.22 µM; in the assay on AsPC1 (ASPC1, 72 h) it was 1.25 µM; in the assay with BxPc-3H, 0.2 µM. The IC50 in the assay with Panc-1 (PANC-1, 72 h) stood at 0.26 µM. Moreover, the “inhibition” value in the assay with MCF-7 (setting [6]) is given as “significant inhibition”.
